# Experimental data: paper PMC12416277, “Phytochemical alkaloids orchestrate immunometabolism against viral infections” (National Science Review, 2025)
# pKd: −log10 of the molar value. Read-outs that look alike come from different tables or passages of the source.
# Assays:
# [1] = biological target: T1, NPC1 (Homo sapiens, UniProt O15118); assay type: binding; settings: read-out: SPR KD
# T1 sequence (O15118 23-1278): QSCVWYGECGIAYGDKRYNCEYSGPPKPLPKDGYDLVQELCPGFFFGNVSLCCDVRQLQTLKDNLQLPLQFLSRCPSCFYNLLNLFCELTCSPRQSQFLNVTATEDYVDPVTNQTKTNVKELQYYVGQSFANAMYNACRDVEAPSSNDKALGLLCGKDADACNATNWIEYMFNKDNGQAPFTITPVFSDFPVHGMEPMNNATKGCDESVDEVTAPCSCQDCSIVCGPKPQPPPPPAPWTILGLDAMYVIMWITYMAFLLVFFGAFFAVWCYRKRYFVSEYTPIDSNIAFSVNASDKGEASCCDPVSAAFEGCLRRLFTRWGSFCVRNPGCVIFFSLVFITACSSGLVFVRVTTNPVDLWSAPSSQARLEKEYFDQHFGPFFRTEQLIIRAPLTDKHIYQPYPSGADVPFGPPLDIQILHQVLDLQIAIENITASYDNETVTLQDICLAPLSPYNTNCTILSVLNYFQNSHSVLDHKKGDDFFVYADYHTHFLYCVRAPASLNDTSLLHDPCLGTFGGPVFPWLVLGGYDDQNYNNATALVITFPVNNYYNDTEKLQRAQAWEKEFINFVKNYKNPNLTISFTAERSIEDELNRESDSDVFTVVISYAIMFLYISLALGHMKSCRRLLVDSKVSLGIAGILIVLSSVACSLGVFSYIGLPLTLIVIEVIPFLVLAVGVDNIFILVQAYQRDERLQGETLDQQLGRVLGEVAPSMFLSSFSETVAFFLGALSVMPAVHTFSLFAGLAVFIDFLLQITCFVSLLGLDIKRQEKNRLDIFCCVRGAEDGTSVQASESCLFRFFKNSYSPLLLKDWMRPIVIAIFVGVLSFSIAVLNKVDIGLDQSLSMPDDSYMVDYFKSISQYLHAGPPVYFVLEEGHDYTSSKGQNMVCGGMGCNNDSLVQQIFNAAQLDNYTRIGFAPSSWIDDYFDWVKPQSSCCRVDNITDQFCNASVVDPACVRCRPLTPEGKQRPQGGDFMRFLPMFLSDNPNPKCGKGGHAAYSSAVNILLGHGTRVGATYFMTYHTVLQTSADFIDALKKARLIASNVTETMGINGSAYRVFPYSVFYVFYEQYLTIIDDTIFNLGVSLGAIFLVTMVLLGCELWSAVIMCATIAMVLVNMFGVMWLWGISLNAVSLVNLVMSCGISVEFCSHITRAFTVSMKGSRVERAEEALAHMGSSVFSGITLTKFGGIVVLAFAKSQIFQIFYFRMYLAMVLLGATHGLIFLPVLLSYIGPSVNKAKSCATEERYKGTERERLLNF
# [2] = test system: EMCV; assay type: cell-based, encephalomyocarditis virus (EMCV)
# [3] = test system: VSV; assay type: cell-based, vesicular stomatitis virus (VSV)
# [4] = test system: A549 cells; test: Confocal analysis of filipin-stained cholesterol distribution in A549 cells; assay type: cell-based
# [5] = test system: VSV; assay type: cell-based, vesicular stomatitis virus (VSV); remark: listed apart in the source
# [6] = test system: STING-dependent antiviral immune pathway; assay type: cell-based
# [7] = test system: STING; test: DMXAA-stimulated WT or Sting-/- MEF cells, Ifnb1, Ifi44, Ccl5, Cxcl10 mRNA; assay type: cell-based, mouse
# [8] = test system: VSV; assay type: cell-based, vesicular stomatitis virus (VSV); remark: listed apart in the source
# [9] = biological target: T1, NPC1; test: Bio-Tet streptavidin pull-down from cell lysates; assay type: binding
# [10] = test system: VSV; assay type: cell-based, vesicular stomatitis virus (VSV); remark: listed apart in the source
# [11] = test system: H1N1; assay type: cell-based, influenza virus A (H1N1)
# [12] = test system: sgRNA-Npc1 cells; assay type: cell-based, mouse
# [13] = test system: STING; assay type: cell-based
# [14] = test system: VSV; assay type: in vivo, C57/BL6J mice; settings: mice
# [15] = test system: H1N1; test: In vivo H1N1 infection mouse model; set-up: species or system C57/BL6J mice; settings: mice
# [16] = test system: A549 cells; test: Transcriptome analysis (RNA-seq, GO, GSEA) of compound-treated A549 cells; settings: WT A549 cells, compared among Tet, Fan, Cep, Bbm
# [17] = H1N1, intranasal administration
compound,measurement,setting,value
"COc1ccc2cc1Oc1ccc(cc1)C[C@H]1c3cc(c(OC)cc3CCN1C)Oc1c(OC)c(OC)cc3c1[C@H](C2)N(C)CC3 [Tet, tetrandrine]",pKd,[1],4.65
same,EMCV infection,[2],effectively suppressed
same,VSV attachment,[3],without affecting virus attachment
same,VSV infection during entry or post-entry stages,[3],inhibited
same,VSV-eGFP entry into lysosomes,[3],blocked
same,cholesterol distribution / lysosomal cholesterol accumulation,[4],shifting it from the plasma membrane to endosomal and lysosomal compartments
same,antiviral effect on VSV entry,[5]; MβCD pretreatment (cholesterol depleted),abolished
same,antiviral effect on VSV entry,[5]; cholesterol supplementation using MβCD-cholesterol,restored inhibition
same,IFNB1 and ISGs gene expression,[6],significantly increased
same,"Ifnb1, Ifi44, Ccl5 and Cxcl10 gene expression",[7]; DMXAA treated Sting-/- MEF cells,abolished
same,"Ifnb1, Ifi44, Ccl5 and Cxcl10 gene expression",[7]; DMXAA treated WT MEF cells,increased
same,antiviral effect and boosted ISGs,[8],significantly attenuated
same,competition of Bio-Tet/NPC1 interaction,[9],competitively inhibited
same,antiviral effect against VSV,[10],diminished
same,antiviral effect against H1N1,[11],diminished
same,antiviral effects,[12],attenuated but restored with Flag-tagged NPC1 reintroduction
same,time-dependent degradation of STING induced by DMXAA,[13],significantly attenuated
same,IL-6 level in serum,[14]; VSV infection,markedly decreased
same,TNF-α level in serum,[14]; VSV infection,markedly decreased
same,VSV-G protein expression in lungs and spleens,[14]; VSV infection,inhibited
same,lung pathology (H&E),[14]; VSV infection,reduced lung pathology and cellular infiltrations
same,"reduction of VSV genome copies in liver, lung, and spleen tissues","[14]; intraperitoneal and intragastric, 10–60 mg/kg, 24 hours pre-VSV infection",0.5–1 log₁₀
same,NP protein expression in lung tissue,[15]; H1N1,inhibited
same,alveolar damage and inflammatory infiltrations in lung tissues (H&E),[15]; H1N1,significantly alleviated
same,body weight recovery,[15]; [17],expedited body weight recovery
same,survival rates,[15]; [17],improved survival rates
same,expression of antiviral immune-related genes,[16],higher expression
